From patent US10968193B2, “Antidiabetic bicyclic compounds” (Merck Sharp & Dohme Corp., priority 2014, dated 2021)
Several values for one entry are separate records, joined by “and”; a condition that tells them apart may be missing. Identical values can stand only once.

What follows are compounds tested against T1, human GPR40 (Homo sapiens, UniProt O14842) (assay: Inositol Phosphate Turnover (IP1) Assay 2). Conditions: HEK cells stably expressing human GPR40; 15,000 cells per well; compound acoustically transferred; CisBio IP-One kit.
T1 construct: expressed in transfected cells; host or cells: HEK cells stably expressing the aequorin reporter
Format: cell-based
Description: Human and mouse GPR40 stable cell-lines were generated in CHO cells stably expressing NFAT BLA (Beta-lactamase). A human GPR40 stable cell-line was generated in HEK cells stably expressing the aequorin expressing reporter. The expression plasmids were transfected using lipofectamine (Life Technologies) following manufacturer's instructions. Stable cell-lines were generated following drug selection.
Inositol Phosphate Turnover (IP1) Assay 2:
The assay was performed in 384-well format. HEK cells stably expressing human GPR40 were plated at 15,000 cells per well in growth medium (DMEM/10% fetal calf serum). Cell plates were then incubated 16 hours at 37 degrees in a 5% CO2 incubator.
Measurement of Inositol Phosphate Turnover (IP1) was performed using the CisBio IP-One kit (Part number 62IPAPEB). After the 16 hour incubation, the cells were washed with HEPES buffer and 10 ul of stimulation buffer (prepared as described in the kit) was added to each well. In a separate plate, compounds were diluted in DMSO (400-fold over the final concentration in the assay well) and 25 nl was acoustically transferred to the appropriate well in the assay cell plate. The plates were then incubated for 60 minutes at 37 degrees. 10 ul of detection buffer (also prepared as described in the IP-One kit) was added to each well and the plates were incubated for 60 minutes in the dark. The plates were then read in a Perkin Elmer EnVision or equivalent reader able to measure FRET. Fluorescent ratio of emission at 665 and 620 nm was then converted to IP1 concentration by back calculating from an IP1 standard curve prepared at the time of the assay.

T1 sequence (O14842 whole entry): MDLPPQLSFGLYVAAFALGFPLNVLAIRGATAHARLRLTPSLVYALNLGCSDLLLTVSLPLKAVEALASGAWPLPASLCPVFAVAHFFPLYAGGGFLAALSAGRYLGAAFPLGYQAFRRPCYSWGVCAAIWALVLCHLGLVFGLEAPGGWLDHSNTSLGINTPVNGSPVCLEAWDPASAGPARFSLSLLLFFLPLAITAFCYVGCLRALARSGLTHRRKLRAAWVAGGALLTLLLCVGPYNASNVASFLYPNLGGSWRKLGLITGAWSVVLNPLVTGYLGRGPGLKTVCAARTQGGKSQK

EC50	SMILES
310 nM	CNCc1cc(C2CCc3ccc([C@H](C4CC4)[C@H](C)C(=O)O)cc3O2)ccc1-c1cc(OC)ncc1F (mixture of isomers) [Example 4]
4.3 nM	COc1cc(-c2ccc(C3CCc4ccc([C@H](C5CC5)[C@H](C)C(=O)O)cc4O3)cc2CN2CCCC2)c(F)cn1 (mixture of isomers) [Example 9]
60 nM	COc1cc(-c2ccc(C3CCc4ccc([C@H](C5CC5)[C@H](C)C(=O)O)cc4O3)nc2CN2CCOCC2)c(F)cn1 (mixture of isomers) [Example 12]
210 nM	COc1cc(-c2ccc(C3CCc4ccc([C@H](C5CC5)[C@H](C)C(=O)O)cc4O3)cc2CN2CCN(C)CC2)c(F)cn1 (mixture of isomers) [Example 13, (2S,3R)-3-cyclopropyl-3-(2-(4-(5-fluoro-2-methoxypyridin-4-yl)-3-(4-methylpiperazin-1-yl)methylphenyl)chroman-7-yl)-2-methylpropanoic acid]
0.7 nM	COc1cc(-c2ccc(C3CCc4ccc([C@H](C5CC5)[C@H](C)C(=O)O)cc4O3)cc2CN2CCC(F)(F)C2)c(F)cn1 (mixture of isomers) [Example 17]
22 nM	COc1cc(-c2ccc(C3CCc4ccc([C@H](C5CC5)[C@H](C)C(=O)O)cc4O3)cc2CN2CC(C)C2)c(F)cn1 (mixture of isomers) [Example 35]
184 nM	COc1cc(-c2ccc(C3CCc4ccc([C@H](C5CC5)[C@H](C)C(=O)O)cc4O3)cc2CN2CCn3cncc3C2)c(F)cn1 (mixture of isomers) [Example 40]
3.1 nM	COc1cc(-c2ccc(C3CCc4ccc([C@H](C5CC5)[C@H](C)C(=O)O)cc4O3)cc2CN2CCOC3(CC3)C2)c(F)cn1 (mixture of isomers) [Example 42]
12 nM	COc1cc(-c2ccc(C3CCc4ccc([C@H](C5CC5)[C@H](C)C(=O)O)cc4O3)cc2CN2CCC(OC)CC2)c(F)cn1 (mixture of isomers) [Example 45]
1 nM	COc1cc(-c2ccc(C3CCc4ccc([C@H](C5CC5)[C@H](C)C(=O)O)cc4O3)cc2CN2CCC(F)(F)CC2)c(F)cn1 (mixture of isomers) [Example 46]
3.5 nM	COc1cc(-c2ccc(C3CCc4ccc([C@H](C5CC5)[C@H](C)C(=O)O)cc4O3)cc2CN2CC(F)C2)c(F)cn1 (mixture of isomers) [Example 47]
4 nM	COc1cc(-c2ccc(C3CCc4ccc([C@H](C5CC5)[C@H](C)C(=O)O)cc4O3)cc2CN2CCC2(C)C)c(F)cn1 (mixture of isomers) [Example 49]
0.35 nM	COc1cc(-c2ccc(C3CCc4ccc([C@H](C5CC5)[C@H](C)C(=O)O)cc4O3)cc2CN(C2CC2)C2CC2)c(F)cn1 (mixture of isomers) [Example 52]
1.7 nM	COc1cc(-c2ccc(C3CCc4ccc([C@H](C5CC5)[C@H](C)C(=O)O)cc4O3)cc2CN(C2CC2)C2COC2)c(F)cn1 (mixture of isomers) [Example 53]
0.73 nM	COc1cc(-c2ccc(C3CCc4ccc([C@H](C5CC5)[C@H](C)C(=O)O)cc4O3)cc2CN2CCCC(C)(C)C2)c(F)cn1 (mixture of isomers) [Example 55]
0.18 nM	COc1cc(-c2ccc(C3CCc4ccc([C@H](C5CC5)[C@H](C)C(=O)O)cc4O3)cc2CN(C)C2CC2)c(F)cn1 (mixture of isomers) [Example 57]
0.98 nM	COc1cc(-c2ccc(C3CCc4ccc([C@H](C5CC5)[C@H](C)C(=O)O)cc4O3)cc2CN2CCOCC2(C)C)c(F)cn1 (mixture of isomers) [Example 59]
2 nM	COc1cc(-c2ccc(C3CCc4ccc([C@H](C5CC5)[C@H](C)C(=O)O)cc4O3)cc2CN2CC(F)(F)C2)c(F)cn1 (mixture of isomers) [Example 61]
0.2 nM and 0.99 nM	COc1cc(-c2ccc(C3CCc4ccc([C@H](C5CC5)[C@H](C)C(=O)O)cc4O3)cc2CN2CCCCC23CC3)c(F)cn1 (mixture of isomers) [Example 62]
2.3 nM	COc1cc(-c2ccc(C3CCc4ccc([C@H](C5CC5)[C@H](C)C(=O)O)cc4O3)cc2CN2CCCCC2)c(F)cn1 (mixture of isomers) [Example 63]
0.65 nM	COc1cc(-c2ccc(C3CCc4ccc([C@H](C5CC5)[C@H](C)C(=O)O)cc4O3)cc2CN2CCCC2(C)C)c(F)cn1 (mixture of isomers) [Example 66]
15 nM	COc1cc(-c2ccc(C3CCc4ccc([C@H](C5CC5)[C@H](C)C(=O)O)cc4O3)cc2CN2CC(C)(C#N)C2)c(F)cn1 (mixture of isomers) [Example 67]
0.7 nM	COc1cc(-c2ccc(C3CCc4ccc([C@H](C5CC5)[C@H](C)C(=O)O)cc4O3)cc2CN2CCOCC23CCC3)c(F)cn1 (mixture of isomers) [Example 71]
8.2 nM	COc1cc(-c2ccc(C3CCc4ccc([C@H](C5CC5)[C@H](C)C(=O)O)cc4O3)cc2CN2CC(C)(OC)C2)c(F)cn1 (mixture of isomers) [Example 73]
17 nM	CCc1ccc(F)c(-c2ccc(C3CCc4ccc([C@H](C5CC5)[C@H](C)C(=O)O)cc4O3)cc2CN2CCCC2)c1 (mixture of isomers) [Example 75]
8.2 nM	CCOc1cc(-c2ccc(C3CCc4ccc([C@H](C5CC5)[C@H](C)C(=O)O)cc4O3)cc2CN(CC)CC)c(F)cn1 (mixture of isomers) [Example 76]
8 nM	COc1cc(-c2ccc(C3CCc4ccc([C@H](C5CC5)[C@H](C)C(=O)O)cc4O3)cc2CN2CCCC2)c(C#N)cn1 (mixture of isomers) [Example 78, (2S,3R)-3-(2-(4-(5-cyano-2-methoxypyridin-4-yl)-3-(pyrrolidin-1-ylmethyl)phenyl)chroman-7-yl)-3-cyclopropyl-2-methylpropanoic acid]

SMILES	EC50
COc1cc(-c2ccc(C3CCc4ccc([C@H](C5CC5)[C@H](C)C(=O)O)cc4O3)cc2CN2CCNCC2)c(F)cn1 (mixture of isomers) [Example 33]	573 nM

These compounds were tested against T1, human GPR40 (assay: Inositol Phosphate Turnover (IP1) Assay 3). Conditions: HEK cells stably expressing human GPR40.
Format: cell-based
How it was run: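 HEK cells stably expressing human GPR40, plated 16 h before, were treated with compound for 60 min at 37 °C in stimulation buffer. IP1 measured by HTRF (665/620 nm ratio) against an IP1 standard curve; activity normalized to a reference compound, EC50 from 4-parameter fit.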

EC50 [nM]	SMILES
16	COc1cc(-c2ccc(C3CCc4ccc([C@H](C5CC5)[C@H](C)C(=O)O)cc4O3)cc2CN2CCC[C@H]2C)ccn1 (some centres unmarked) [Example 280]
5.7	COc1cc(-c2ccc(C3CCc4ccc([C@H](C5CC5)[C@H](C)C(=O)O)cc4O3)cc2CN2CCCC2(C)C)ccn1 (some centres unmarked) [Example 281]
7.4	COc1cc(-c2ccc(C3CCc4ccc([C@H](C5CC5)[C@H](C)C(=O)O)cc4O3)cc2CN2CCC(C)(C)C2)ccn1 (some centres unmarked) [Example 282]
0.3	COc1cc(-c2ccc([C@@H]3CCc4ccc([C@H](C5CC5)[C@H](C)C(=O)O)cc4O3)cc2CN(C(C)C)C(C)C)ccn1 [Example 284, Sodium (2S,3R)-3-cyclopropyl-3-((S)-2-(3-((diisopropylamino)methyl)-4-(2-methoxypyridin-4-yl)phenyl)chroman-7-yl)-2-methylpropanoate]
4	COc1cc(-c2ccc(C3CCc4ccc([C@H](C5CC5)[C@@H](C)C(=O)O)cc4O3)cc2CN(C(C)C)C(C)C)ccn1 (some centres unmarked) [Example 285]
11	COc1cc(-c2ccc(C3CCc4ccc([C@H](C5CC5)[C@H](C)C(=O)O)cc4O3)cc2CN(C)C(C)C)ccn1 (some centres unmarked) [Example 286]
3.3	CCN(Cc1cc(C2CCc3ccc([C@H](C4CC4)[C@H](C)C(=O)O)cc3O2)ccc1-c1ccnc(OC)c1)C(C)C (some centres unmarked) [Example 287]
21	COc1cc(-c2ccc(C3CCc4ccc([C@H](C5CC5)[C@H](C)C(=O)O)cc4O3)cc2CN(C)C(C)(C)C)ccn1 (some centres unmarked) [Example 288]
72	COc1cc(-c2ccc(C3CCc4ccc([C@H](C5CC5)[C@H](C)C(=O)O)cc4O3)cc2CN2[C@H]3CC[C@@H]2CC3)ccn1 (some centres unmarked) [Example 289]
22	COc1cc(-c2ccc(C3CCc4ccc([C@H](C5CC5)[C@H](C)C(=O)O)cc4O3)cc2CN2C3CCCC2CC3)ccn1 (some centres unmarked) [Example 290]
3.1	CCN(CC)Cc1cc(C2CCc3ccc([C@H](C4CC4)[C@H](C)C(=O)O)cc3O2)ccc1-c1cc(OC)ncc1C#N (some centres unmarked) [Example 291]
0.1	COc1cc(-c2ccc(C3CCc4ccc([C@H](C5CC5)[C@H](C)C(=O)O)cc4O3)cc2CN(C(C)C)C(C)C)c(C#N)cn1 (some centres unmarked) [Example 292]
0.08	COc1cc(-c2ccc(C3CCc4ccc([C@H](C5CC5)[C@H](C)C(=O)O)cc4O3)cc2CN2CCCCC23CC3)c(C#N)cn1 (some centres unmarked) [Example 293]
0.5	CCN(Cc1cc(C2CCc3ccc([C@H](C4CC4)[C@H](C)C(=O)O)cc3O2)ccc1-c1cc(OC)ncc1C#N)C(C)C (some centres unmarked) [Example 294]
85	C[C@H](C(=O)O)[C@H](c1ccc2c(c1)OC(c1ccc(-c3cc(O)ncc3C#N)c(CN3CCCCC34CC4)c1)CC2)C1CC1 (some centres unmarked) [Example 295]
3.9	COc1ccc(F)c(-c2ccc(C3CCc4ccc([C@H](C5CC5)[C@H](C)C(=O)O)cc4O3)cc2CN2CCCCC23CC3)n1 (some centres unmarked) [compound 190]
